These results are taken from patent EP0700912A1, “QUINOLONE DERIVATIVE OR SALT THEREOF, AND ANTIBACTERIAL CONTAINING THE SAME” (priority 1993, dated 1994).

Converted amounts (≈) assume the structure as drawn.

The term MIC denotes the smallest concentration in the dilution series that meets the test's criterion for growth inhibition. Low values mean greater potency, high ones weaker potency.

Data set [1] can be described thus: Photo-toxicity: ear abnormality after intravenous dosing and ultraviolet exposure. The format is in vivo. As to conditions: 40 mg/kg/10 mℓ intravenously, female ICR mouse, headed 0 hour; for Number of toxicity-developed cases: ultraviolet rays 320-400 nm, 1.8 mW/cm²/sec, 4 hours; for ranking points: ultraviolet rays 4 hours, 0 = no abnormality, 1 = slight erythema, 2 = medium erythema, 3 = heavy erythema or edema. As for the experimental part: After 40 mg/kg/10 mℓ of the test compound were administered intravenously to a female ICR mouse (5-6 week old), it was exposed to ultraviolet rays (320-400 nm, 1.8 mW/cm²/sec) for 4 hours. […] The abnormality on the ears was ranked as 0 point in the case of no abnormality, 1 point in the case of slight erythema, 2 points in the case of medium erythema, and 3 points in the case of heavy erythema or edema.

A further data set relates to P.aeruginosa (IFO 3445). As to the kind of experiment: Antibacterial activities: minimum inhibitory concentration (standard method of Japan Society of Chemotherapy). It counts as cell-based. As to conditions: Pseudomonas aeruginosa, IFO3445. As to the method: (§1) The minimum inhibitory concentration [MIC: µg/mℓ] was measured in accordance with the standard method of Japan Society of Chemotherapy [CHEMOTHERAPY, 29, No.1, 76-79(1981)]. The results are shown in Table 13 in which compound numbers are the same as those synthesized in the above Examples.

For data set [2], the system named is S.aureus 209P (IFO 12732). The data set is described as above. It counts as cell-based. The conditions noted are these: Staphylococcus aureus. As for the experimental part:
as §1

For data set [3], the system named is E.coli NIH JC-2 (IFO*12734). The description is as above. The format is cell-based. The conditions noted are these: Escherichia coli. As to the method: as §1
Data set [4] is described as follows: Absorption and excretion: recovery in bile after oral administration. It counts as in vivo. As to conditions: rats with polyethylene tube in choledoch, bile collected over 24 hours. As to the method: The absorption and excretion of the orallyadministered invention compound were tested by measuring the recovery in urine and that in bile according to the following method.
After the test compound was prepared in a similar manner to the measurement of the recovery in urine, it was orally administered to the rats who had had their choledoch inserted with a polyethylene tube. The bile was collected over 24 hours. The concentration of the test compound in the bile was examined in the similar manner to the above and the excretion rate in the bile for 24 hours was determined.

For the compound `Cl.N[C@H]1CCN(c2cc3c(cc2F)c(=O)c(C(=O)O)cn3-c2ccon2)C1` [Compound No. 4, 7-{3(S)-aminopyrrolidin-1-yl}-6-fluoro-1-(isoxazol-3-yl)-1,4-dihydro-4-oxoquinoline-3-carboxylic acid hydrochloride], the “Number of toxicity-developed cases” value in data set [1] (first column), in data set [1] (second column) and in data set [1] (third column) was 0/6 throughout. In addition, the ranking points in data set [1] (first column), in data set [1] (second column) and in data set [1] (third column) was 0 in each case. In addition, the MIC is 0.1 µg/mL against P.aeruginosa (IFO 3445), 0.1 µg/mL in data set [2] and 0.025 µg/mL in data set [3].

As to `C[C@H]1CN(c2cc3c(cc2F)c(=O)c(C(=O)O)cn3-c2ccon2)C[C@H]1N` [Compound No. 5], the “Excretion rate (24 hrs, %) in bile” value in data set [4] amounted to 1.2%. For the same compound, the “Number of toxicity-developed cases” value in data set [1] (first column), in data set [1] (second column) and in data set [1] (third column) was 0/6 throughout. In addition, the ranking points in data set [1] (first column), in data set [1] (second column) and in data set [1] (third column) was 0 throughout. Further, the results for the MIC (in the data set with P.aeruginosa (IFO 3445); in data set [2]; in data set [3]) were 0.2 µg/mL (≈ 0.537 µM), 0.1 µg/mL (≈ 0.269 µM) and 0.025 µg/mL (≈ 0.0671 µM), respectively.

`CCn1cc(C(=O)O)c(=O)c2cc(F)c(N3CCNCC3)nc21` [Enoxacin, reference compound]: the ranking points in data set [1] (first column) is 1.0; in data set [1] (second column) it was 0.4; in data set [1] (third column), 0.3.

Regarding `CCn1cc(C(=O)O)c(=O)c2cc(F)c(N3CCNCC3)cc21` [Norfloxacin, reference compound], the figures for the ranking points in data set [1] (first column), in data set [1] (second column) and in data set [1] (third column) were 1.0, 1.0 and 0, respectively.

Turning to `CC1COc2c(N3CCN(C)CC3)c(F)cc3c(=O)c(C(=O)O)cn1c23` (stereo not shown) [Ofloxacin, reference compound], the results for the MIC (with P.aeruginosa (IFO 3445); in data set [2]; in data set [3]) were 1.56 µg/mL (≈ 4.32 µM), 0.39 µg/mL (≈ 1.08 µM) and 0.1 µg/mL (≈ 0.277 µM), respectively.

Turning to `N[C@H]1CCN(c2cc3c(c(Cl)c2F)c(=O)c(C(=O)O)cn3-c2ccon2)C1` [compound 49], the MIC was 0.2 µg/mL (≈ 0.509 µM) against P.aeruginosa (IFO 3445), 0.2 µg/mL (≈ 0.509 µM) in data set [2] and 0.05 µg/mL (≈ 0.127 µM) in data set [3].

`Nc1c(F)c(N2CC[C@H](N)C2)cc2c1c(=O)c(C(=O)O)cn2-c1ccon1` [compound 57]: the MIC against P.aeruginosa (IFO 3445) came out at 0.1 µg/mL (≈ 0.268 µM); in data set [2], 0.05 µg/mL (≈ 0.134 µM); in data set [3] it was 0.013 µg/mL (≈ 0.0348 µM).

Consider `C[C@H]1CN(c2cc3c(c(N)c2F)c(=O)c(C(=O)O)cn3-c2ccon2)C[C@H]1N` [compound 58], for which the MIC in the data set with P.aeruginosa (IFO 3445) is 0.2 µg/mL (≈ 0.516 µM); in data set [2] it was 0.05 µg/mL (≈ 0.129 µM); in data set [3], 0.013 µg/mL (≈ 0.0336 µM).
